Measurements reported in ChEMBL document CHEMBL1155256, “A new small molecule that directly inhibits the DNA binding of NF-kappaB” (Bioorg Med Chem, 2009).

Biological target: T1, Nuclear factor NF-kappa-B p105 subunit (Homo sapiens, UniProt P19838)
T1 sequence (P19838 whole entry): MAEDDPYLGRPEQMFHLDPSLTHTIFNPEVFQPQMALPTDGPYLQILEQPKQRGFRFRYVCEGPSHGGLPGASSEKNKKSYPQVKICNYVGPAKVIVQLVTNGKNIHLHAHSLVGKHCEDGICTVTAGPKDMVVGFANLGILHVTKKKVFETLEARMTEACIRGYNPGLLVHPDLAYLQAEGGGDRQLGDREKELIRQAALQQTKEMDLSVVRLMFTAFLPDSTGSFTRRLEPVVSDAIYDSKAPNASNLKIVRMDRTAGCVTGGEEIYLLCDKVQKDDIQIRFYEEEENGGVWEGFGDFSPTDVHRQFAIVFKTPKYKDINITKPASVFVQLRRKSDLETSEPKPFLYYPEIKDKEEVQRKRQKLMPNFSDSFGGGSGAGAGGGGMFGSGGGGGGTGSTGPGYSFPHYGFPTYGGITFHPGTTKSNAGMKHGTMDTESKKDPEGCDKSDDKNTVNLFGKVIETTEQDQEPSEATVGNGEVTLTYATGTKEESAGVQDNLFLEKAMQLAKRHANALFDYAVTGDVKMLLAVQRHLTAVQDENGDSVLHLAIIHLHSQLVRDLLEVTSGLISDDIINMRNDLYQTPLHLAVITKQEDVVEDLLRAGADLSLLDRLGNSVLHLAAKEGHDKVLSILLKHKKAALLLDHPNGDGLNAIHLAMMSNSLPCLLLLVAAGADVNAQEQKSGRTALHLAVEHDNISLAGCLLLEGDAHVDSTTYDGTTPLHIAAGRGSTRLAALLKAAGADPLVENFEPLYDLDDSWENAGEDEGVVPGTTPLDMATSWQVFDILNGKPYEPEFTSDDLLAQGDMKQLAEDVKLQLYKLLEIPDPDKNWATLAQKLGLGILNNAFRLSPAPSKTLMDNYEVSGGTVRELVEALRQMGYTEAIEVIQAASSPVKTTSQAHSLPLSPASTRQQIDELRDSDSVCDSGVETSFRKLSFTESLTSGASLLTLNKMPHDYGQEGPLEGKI
Assay: Inhibition of GST-fused human NF-kappaB p50 subunit DNA binding activity assessed as shortened diffusion time by fluorescence correlation spectroscopy

Row | Compound | IC50 [µM]
1 | Clc1nc(Cl)nc(Nc2ccccc2)n1 | 28.6
2 | Clc1ccc(Nc2nc(Cl)nc(Cl)n2)cc1 | 110
3 | CC(C)c1ccc(Nc2nc(Cl)nc(Cl)n2)cc1 | 74.4

Next, values leading:

Row | IC50 [µM] | Compound
4 | 119 | O=[N+]([O-])c1cccc(Nc2nc(Cl)nc(Cl)n2)c1
5 | > 300 | O=[N+]([O-])c1ccc(Nc2nc(Cl)nc(Cl)n2)cc1
6 | 19 | Cc1cccc(Nc2nc(Cl)nc(Cl)n2)c1
